Experimental findings from patent publication US11045457B2, “Piperidinyl-3-(aryloxy)propanamides and propanoates” (priority 2018, dated 2021) are described below.

Each structure is given as a SMILES string.

The target of assay [1] is T1, SSTR4 (Homo sapiens (Human), UniProt P31391). Put plainly: SSTR4 I-125 somatostatin competition binding assay (membranes from CHO-K1 cells overexpressing SSTR4). To be noted: competition with I-125 labeled somatostatin; for IC50: read-out: SSTR4 Binding pIC50 (converted).
Procedure: Membranes from CHO-K1 cells overexpressing SSTR4 are purchased from Perkin Elmer (catalog number ES-524-M400UA). Test compounds are suspended in DMSO and then diluted in assay buffer (25 mM HEPES pH 7.4, 10 mM MgCl2, 1 mM CaCl2), 0.5% BSA) plus 0.2 nM I-125 labeled somatostatin (Perkin Elmer catalog number NEX389). […] Then 1 μg of SSTR4 membranes in 50 μL assay buffer are added per well. The Plate is incubated for 60 minutes at room temperature. FilterMat A filters (Perkin Elmer catalog number 1450-421) are pre-soaked in 0.5% PEI (Sigma catalog number P3143). The contents of the assay plate are transferred to filters with a TomTech harvester and washed 5 times with 20 mM HEPES, 100 mM NaCl. The filters are dried in a microwave oven then transferred to sample bag containing a scintillator sheet (Perkin Elmer catalog number 1450-441). The scintillator sheets are melted to filters using a heat block. The filters are then read in a MicroBeta scintillation counter. Binding Ki curves are generated using Activity Base for Screening Data Management and the results are reported as pIC50.
For assay [2], the target named is T1, SSTR4. Kind of assay: Inhibition of forskolin stimulated cAMP in CHO-K1 cells overexpressing SSTR4. To be noted: for EC50: read-out: SSTR4 Activity pEC50 (converted). It counts as cell-based. The essentials: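 Read-out is a HTRF LANCE Ultra cAMP competition using Eu-labelled streptavidin and biotin-cAMP, incubated 60 min at room temperature. It followed a 30 min room-temperature exposure of Kreb's Ringer-washed cells to compound plus forskolin. Potency is expressed as pEC50.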

In assay [3] the target is SSTR1 (Homo sapiens (Human), UniProt P30872). Kind of assay: SSTR1 I-125 somatostatin competition binding assay for selectivity versus SSTR4 (membranes from CHO-K1 cells overexpressing SSTR1).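 Further: Filter-based radioligand binding, bound label counted by scintillation after 60 min incubation at room temperature.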
SSTR1, sequence (P30872 whole entry): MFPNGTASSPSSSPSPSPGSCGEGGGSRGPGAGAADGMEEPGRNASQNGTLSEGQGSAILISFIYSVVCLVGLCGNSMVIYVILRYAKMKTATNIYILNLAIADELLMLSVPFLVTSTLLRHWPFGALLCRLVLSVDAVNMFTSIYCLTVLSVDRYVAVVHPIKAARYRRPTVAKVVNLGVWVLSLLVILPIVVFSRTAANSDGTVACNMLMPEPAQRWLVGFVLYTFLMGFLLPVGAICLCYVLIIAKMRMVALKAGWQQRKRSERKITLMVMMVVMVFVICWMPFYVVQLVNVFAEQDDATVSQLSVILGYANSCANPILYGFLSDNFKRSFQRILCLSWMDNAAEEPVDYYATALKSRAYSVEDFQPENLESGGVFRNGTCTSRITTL

T1 sequence (P31391 whole entry): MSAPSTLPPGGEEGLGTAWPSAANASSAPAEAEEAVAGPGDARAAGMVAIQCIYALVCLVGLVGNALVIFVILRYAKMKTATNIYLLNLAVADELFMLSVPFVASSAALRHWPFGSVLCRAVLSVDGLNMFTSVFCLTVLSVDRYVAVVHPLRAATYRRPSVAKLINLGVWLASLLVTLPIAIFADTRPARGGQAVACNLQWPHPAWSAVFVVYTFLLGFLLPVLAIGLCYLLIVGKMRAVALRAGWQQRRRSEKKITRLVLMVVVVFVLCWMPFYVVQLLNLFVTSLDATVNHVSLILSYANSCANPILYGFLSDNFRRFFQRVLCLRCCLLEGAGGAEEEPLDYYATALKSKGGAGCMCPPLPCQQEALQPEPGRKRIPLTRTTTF

Consider `CC(C)[C@@H]1CN(C)C[C@H]1NC(=O)C(C)(C)COc1ncccc1C(F)(F)F` (racemic) [Example 15, trans-N-(4-isopropyl-1-methylpyrrolidin-3-yl)-2,2-dimethyl-3-((3-(trifluoromethyl)pyridin-2-yl)oxy)propanamide], for which the values for the IC50 in assay [1] and in assay [3] were 158 nM and 3160 nM, respectively. Moreover, the EC50 in assay [2] was 20 nM.

As for `CN1C[C@@H](NC(=O)C(C)(C)COc2ncccc2C2CC2)[C@H](c2ccc(C(F)(F)F)nc2)C1` (racemic) [Example 58, trans-3-((3-cyclopropylpyridin-2-yl)oxy)-2,2-dimethyl-N-(1-methyl-4-(6-(trifluoromethyl)pyridin-3-yl)pyrrolidin-3-yl)propanamide], the IC50 was 200 nM in assay [1] and 126 nM in assay [3]. Further, the EC50 in assay [2] is 20 nM.

Regarding `CN1CC[C@H](NC(=O)C(C)(C)COc2ncccc2OC(F)(F)F)[C@H](c2ccccc2)C1` (relative stereo) [Example 166, 2,2-dimethyl-N-(cis-1-methyl-3-phenylpiperidin-4-yl)-3-((3-(trifluoromethoxy)pyridin-2-yl)oxy)propanamide], the “SSTR4 Binding pIC50” value in assay [1] is on record as 7.4. Further, the “SSTR1 Binding pIC50” value in assay [3] (competition with I-125 labeled somatostatin, CHO-K1 SSTR1 membranes) is recorded as 6.2.

Consider `C[C@@H]1CN(C)CC[C@H]1NC(=O)C(C)(C)COc1ncccc1OC(F)(F)F` (single isomer, unassigned) [Example 108], for which the “SSTR4 Binding pIC50” value in assay [1] came out at 6.1. The “SSTR4 Activity pEC50” value in assay [2] turned out to be 6.8.

With `CC[C@@H]1CN(C)CC[C@H]1NC(=O)C(C)(C)COc1ncccc1C(F)(F)F` (single isomer, unassigned) [Example 144], the “SSTR4 Binding pIC50” value in assay [1] stood at 8.0. Moreover, the “SSTR4 Activity pEC50” value in assay [2] is reported as 8.7.

Take `Cc1cccnc1OCC(C)(C)C(=O)NC1CCN(C)CC1` [Example 1, 2,2-dimethyl-N-(1-methylpiperidin-4-yl)-3-((3-methylpyridin-2-yl)oxy)propanamide]: the “SSTR4 Binding pIC50” value in assay [1] turned out to be 6.4. The “SSTR4 Activity pEC50” value in assay [2] is listed as 7.3.

`COc1cccnc1OCC(C)(C)C(=O)NC1CCN(C)CC1` [Example 49, 3-((3-methoxypyridin-2-yl)oxy)-2,2-dimethyl-N-(1-methylpiperidin-4-yl)propanamide]: the “SSTR4 Binding pIC50” value in assay [1] is recorded as 6.0. Moreover, the “SSTR4 Activity pEC50” value in assay [2] is 6.7.

Turning to `CCOc1ccccc1OCC(C)(C)C(=O)NC1CCN(C)CC1` [Example 78, 3-(2-ethoxyphenoxy)-2,2-dimethyl-N-(1-methylpiperidin-4-yl)propanamide], in assay [1], the “SSTR4 Binding pIC50” value was found to be 6.7. Moreover, in assay [2], the “SSTR4 Activity pEC50” value was determined as 7.4.

Consider `Cc1cnc(OCC(C)(C)C(=O)NC2CCN(C)CC2)c(C)c1` [Example 84, 3-((3,5-dimethylpyridin-2-yl)oxy)-2,2-dimethyl-N-(1-methylpiperidin-4-yl)propanamide], for which the “SSTR4 Binding pIC50” value in assay [1] is 6.5. The “SSTR4 Activity pEC50” value in assay [2] came to 7.4.

In the case of `C[C@H]1CN(C)CC[C@@H]1NC(=O)C(C)(C)COc1ncccc1C(F)(F)F` [Example 105, N-((3S,4S)-1,3-dimethylpiperidin-4-yl)-2,2-dimethyl-3-((3-(trifluoromethyl)pyridin-2-yl)oxy)propanamide], in assay [1], the “SSTR4 Binding pIC50” value was 7.2. For the same compound, in assay [2], the “SSTR4 Activity pEC50” value stood at 8.1.

Turning to `C[C@H]1CN(C)CC[C@@H]1NC(=O)C(C)(C)COc1ncccc1OC(F)(F)F` [Example 107, N-((3S,4S)-1,3-dimethylpiperidin-4-yl)-2,2-dimethyl-3-((3-(trifluoromethoxy)pyridin-2-yl)oxy)propanamide], the “SSTR4 Binding pIC50” value in assay [1] is 7.7. Besides, the “SSTR4 Activity pEC50” value in assay [2] is reported as 8.7.

With `Cc1cccnc1OCC(C)(C)C(=O)N[C@H]1CCN(C)C[C@@H]1F` [Example 121, N-((3S,4S)-3-fluoro-1-methylpiperidin-4-yl)-2,2-dimethyl-3-((3-methylpyridin-2-yl)oxy)propanamide], the “SSTR4 Binding pIC50” value in assay [1] was 6.6. For the same compound, the “SSTR4 Activity pEC50” value in assay [2] was 6.9.

Take `Cc1cnc(OCC(C)(C)C(=O)N[C@H]2CCN(C)C[C@@H]2C)c(C)c1` [Example 141, N-((3S,4S)-1,3-dimethylpiperidin-4-yl)-3-((3,5-dimethylpyridin-2-yl)oxy)-2,2-dimethylpropanamide]: the “SSTR4 Binding pIC50” value in assay [1] was determined as 6.8. In addition, in assay [2], the “SSTR4 Activity pEC50” value was found to be 7.4.

In the case of `CC(C)(COc1ncccc1C(F)(F)F)C(=O)N[C@H]1CCNC[C@@H]1F` [Example 158, N-((3S,4S)-3-fluoropiperidin-4-yl)-2,2-dimethyl-3-((3-(trifluoromethyl)pyridin-2-yl)oxy)propanamide], the “SSTR4 Binding pIC50” value in assay [1] was 8.1. In addition, the “SSTR4 Activity pEC50” value in assay [2] is listed as 8.2.

As to `C[C@@H]1C[C@H](NC(=O)C(C)(C)COc2ncccc2C(F)(F)F)CCN1C` [Example 176], the “SSTR4 Binding pIC50” value in assay [1] was 7.1. The “SSTR4 Activity pEC50” value in assay [2] was 7.7.

Take `C[C@H]1CNCC[C@@H]1NC(=O)C(C)(C)COc1ccccc1F` [Example 196, 3-(2-fluorophenoxy)-2,2-dimethyl-N-((3S,4S)-3-methylpiperidin-4-yl)propanamide]: the “SSTR4 Binding pIC50” value in assay [1] was determined as 7.5. Also, the “SSTR4 Activity pEC50” value in assay [2] is on record as 8.5.

In the case of `O=C(N[C@H]1CCNC[C@@H]1F)C(F)(F)COc1ncccc1C(F)(F)F` [Example 197, 2,2-difluoro-N-((3S,4S)-3-fluoropiperidin-4-yl)-3-((3-(trifluoromethyl)pyridin-2-yl)oxy)propanamide], the “SSTR4 Binding pIC50” value in assay [1] was found to be 7.0. For the same compound, the “SSTR4 Activity pEC50” value in assay [2] worked out at 7.7.

Turning to `Cc1cccnc1OCC(F)(F)C(=O)N[C@H]1CCNC[C@@H]1F` [Example 201, 2,2-difluoro-N-((3S,4S)-3-fluoropiperidin-4-yl)-3-((3-methylpyridin-2-yl)oxy)propanamide], the “SSTR4 Binding pIC50” value in assay [1] stood at 6.7. Further, the “SSTR4 Activity pEC50” value in assay [2] stood at 7.5.

For the compound `C[C@@H]1C[C@H](NC(=O)C(F)(F)COc2ncccc2OC(F)(F)F)CCN1C` [Example 206, N-((2R,4R)-1,2-dimethylpiperidin-4-yl)-2,2-difluoro-3-((3-(trifluoromethoxy)pyridin-2-yl)oxy)propanamide], the “SSTR4 Binding pIC50” value in assay [1] was determined as 6.7. The “SSTR4 Activity pEC50” value in assay [2] was determined as 7.7.

As to `O=C(N[C@H]1CCNC[C@@H]1F)C(F)(F)COc1ncccc1OC(F)(F)F` [Example 207, 2,2-difluoro-N-((3S,4S)-3-fluoropiperidin-4-yl)-3-((3-(trifluoromethoxy)pyridin-2-yl)oxy)propanamide], in assay [1], the “SSTR4 Binding pIC50” value is reported as 7.6. Besides, the “SSTR4 Activity pEC50” value in assay [2] was determined as 8.1.

On to `Cc1cnc(OCC(C)(C)C(=O)N[C@@H]2CCNC[C@H]2F)c(C)c1` [Example 214, 3-((3,5-dimethylpyridin-2-yl)oxy)-N-((3R,4R)-3-fluoropiperidin-4-yl)-2,2-dimethylpropanamide], for which the “SSTR4 Binding pIC50” value in assay [1] is 6.8. Moreover, the “SSTR4 Activity pEC50” value in assay [2] is on record as 8.2.

`CN1CCC(NC(=O)C(F)(F)COc2ccccc2Cl)CC1` [Example 215, 3-(2-chlorophenoxy)-2,2-difluoro-N-(1-methylpiperidin-4-yl)propanamide]: the “SSTR4 Binding pIC50” value in assay [1] was determined as 6.0. Moreover, in assay [2], the “SSTR4 Activity pEC50” value is listed as 6.7.

Regarding `Cc1cnc(OCC(C)(C)C(=O)N[C@@H]2CCN(C)[C@H](C)C2)c(C)c1` [Example 218, N-((2R,4R)-1,2-dimethylpiperidin-4-yl)-3-((3,5-dimethylpyridin-2-yl)oxy)-2,2-dimethylpropanamide], the “SSTR4 Binding pIC50” value in assay [1] is reported as 6.2. Further, the “SSTR4 Activity pEC50” value in assay [2] is given as 7.5.
